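Compound exposure: 48 hours, 5 concentrations, 96-well plates. GI50 marks 50% less growth.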 Active and inactive are the calls of the source. No stated cut-off is given here; in the data, active = GI50 up to about 1.1 µM and inactive = higher.
Assays:
Assay in all cases: inhibition of tumour cell growth, NCI panel, 48 h
786-0 = tested on: 786-0
A498 = tested on: A498
A549 = tested on: A549
ACHN = tested on: ACHN
BT-549 = tested on: BT-549
CAKI-1 = tested on: CAKI-1
CCRF-CEM = tested on: CCRF-CEM
COLO 205 = tested on: COLO 205
DU-145 = tested on: DU-145
EKVX = tested on: EKVX
HCC 2998 = tested on: HCC 2998
HCT-116 = tested on: HCT-116
HCT-15 = tested on: HCT-15
HL-60 = tested on: HL-60
HOP-92 = tested on: HOP-92
HT-29 = tested on: HT-29
Hs-578T = tested on: Hs-578T
IGROV-1 = tested on: IGROV-1
K562 = tested on: K562
KM12 = tested on: KM12
LOX IMVI = tested on: LOX IMVI
M14 = tested on: M14
MCF7 = tested on: MCF7
MDA-MB-231 = tested on: MDA-MB-231
MDA-MB-435 = tested on: MDA-MB-435
MDA-N = tested on: MDA-N
Malme-3M = tested on: Malme-3M
NCI-H226 = tested on: NCI-H226
NCI-H23 = tested on: NCI-H23
NCI-H460 = tested on: NCI-H460
NCI-H522 = tested on: NCI-H522
NCI/ADR-RES = tested on: NCI/ADR-RES
OVCAR-3 = tested on: OVCAR-3
OVCAR-4 = tested on: OVCAR-4
OVCAR-5 = tested on: OVCAR-5
OVCAR-8 = tested on: OVCAR-8
PC-3 = tested on: PC-3
RPMI-8226 = tested on: RPMI-8226
SF-268 = tested on: SF-268
SF-295 = tested on: SF-295
SF-539 = tested on: SF-539
SK-MEL-28 = tested on: SK-MEL-28
SK-MEL-2 = tested on: SK-MEL-2
SK-MEL-5 = tested on: SK-MEL-5
SK-OV-3 = tested on: SK-OV-3
SN12C = tested on: SN12C
SNB-19 = tested on: SNB-19
SW-620 = tested on: SW-620
T47D = tested on: T47D
TK-10 = tested on: TK-10
U-251 = tested on: U-251
UACC-257 = tested on: UACC-257
UACC-62 = tested on: UACC-62
UO-31 = tested on: UO-31
HOP-62 = tested on: HOP-62
MOLT-4 = tested on: MOLT-4
SNB-75 = tested on: SNB-75
RXF 393 = tested on: RXF 393

CCCCc1ccc(NC(=N)N)cc1
GI50 (786-0): 17.7 µM (inactive)
GI50 (A498): 35.6 µM (inactive)
GI50 (A549): 41.5 µM (inactive)
GI50 (ACHN): 36.7 µM (inactive)
GI50 (BT-549): 24.8 µM (inactive)
GI50 (CAKI-1): 28.4 µM (inactive)
GI50 (CCRF-CEM): 16.9 µM (inactive)
GI50 (COLO 205): 19 µM (inactive)
GI50 (DU-145): 41.4 µM (inactive)
GI50 (EKVX): 30 µM (inactive)
GI50 (HCC 2998): 16.3 µM (inactive)
GI50 (HCT-116): 24.9 µM (inactive)
GI50 (HCT-15): 33 µM
GI50 (HL-60): 34.1 µM (inactive)
GI50 (HOP-92): 28.7 µM (inactive)
GI50 (HT-29): 25.8 µM (inactive)
GI50 (Hs-578T): 37.1 µM (inactive)
GI50 (IGROV-1): 21.7 µM (inactive)
GI50 (K562): 12.6 µM (inactive)
GI50 (KM12): 18.9 µM (inactive)
GI50 (LOX IMVI): 40 µM (inactive)
GI50 (M14): 24.2 µM (inactive)
GI50 (MCF7): 19.7 µM (inactive)
GI50 (MDA-MB-231): 28.9 µM (inactive)
GI50 (MDA-MB-435): 40.1 µM (inactive)
GI50 (MDA-N): 27.7 µM (inactive)
GI50 (Malme-3M): 38.8 µM (inactive)
GI50 (NCI-H226): 23.7 µM (inactive)
GI50 (NCI-H23): 40.2 µM (inactive)
GI50 (NCI-H460): 20.2 µM (inactive)
GI50 (NCI-H522): 28.1 µM (inactive)
GI50 (NCI/ADR-RES): 29.9 µM (inactive)
GI50 (OVCAR-3): 24.5 µM (inactive)
GI50 (OVCAR-4): 25.4 µM (inactive)
GI50 (OVCAR-5): 50.6 µM (inactive)
GI50 (OVCAR-8): 38.4 µM (inactive)
GI50 (PC-3): 23.8 µM (inactive)
GI50 (RPMI-8226): 17 µM (inactive)
GI50 (SF-268): 40.2 µM (inactive)
GI50 (SF-295): 23.9 µM (inactive)
GI50 (SF-539): > 10 µM (inactive)
GI50 (SK-MEL-28): 58.2 µM (inactive)
GI50 (SK-MEL-2): 47.6 µM (inactive)
GI50 (SK-MEL-5): 12.9 µM (inactive)
GI50 (SK-OV-3): 41.5 µM (inactive)
GI50 (SN12C): 40 µM (inactive)
GI50 (SNB-19): 40.6 µM (inactive)
GI50 (SW-620): 44.5 µM (inactive)
GI50 (T47D): 31.6 µM (inactive)
GI50 (TK-10): 22.1 µM (inactive)
GI50 (U-251): 85.3 µM (inactive)
GI50 (UACC-257): 33.7 µM (inactive)
GI50 (UACC-62): 37.3 µM (inactive)
GI50 (UO-31): 33.6 µM (inactive)

COc1cc(COC(=O)N(C)[C@@H](Cc2ccccc2)C(=O)O)c([N+](=O)[O-])cc1OC
GI50 (786-0): > 100 µM (inactive)
GI50 (A549): > 100 µM (inactive)
GI50 (ACHN): > 100 µM (inactive)
GI50 (BT-549): > 100 µM (inactive)
GI50 (CCRF-CEM): > 100 µM (inactive)
GI50 (DU-145): > 100 µM (inactive)
GI50 (EKVX): > 100 µM (inactive)
GI50 (HCC 2998): > 100 µM (inactive)
GI50 (HCT-116): > 100 µM (inactive)
GI50 (HCT-15): > 100 µM
GI50 (HL-60): > 100 µM (inactive)
GI50 (HOP-62): > 100 µM (inactive)
GI50 (HOP-92): > 100 µM (inactive)
GI50 (HT-29): > 100 µM (inactive)
GI50 (Hs-578T): > 100 µM (inactive)
GI50 (IGROV-1): > 100 µM (inactive)
GI50 (K562): > 100 µM (inactive)
GI50 (KM12): > 100 µM (inactive)
GI50 (M14): > 100 µM (inactive)
GI50 (MCF7): > 100 µM (inactive)
GI50 (MDA-MB-435): > 100 µM (inactive)
GI50 (MDA-N): > 100 µM (inactive)
GI50 (MOLT-4): > 100 µM (inactive)
GI50 (Malme-3M): > 100 µM (inactive)
GI50 (NCI-H226): > 100 µM (inactive)
GI50 (NCI-H23): > 100 µM (inactive)
GI50 (NCI-H460): > 100 µM (inactive)
GI50 (NCI/ADR-RES): > 100 µM (inactive)
GI50 (OVCAR-3): > 100 µM (inactive)
GI50 (OVCAR-5): > 100 µM (inactive)
GI50 (OVCAR-8): > 100 µM (inactive)
GI50 (PC-3): > 100 µM (inactive)
GI50 (RPMI-8226): > 100 µM (inactive)
GI50 (SF-268): > 100 µM (inactive)
GI50 (SF-295): > 100 µM (inactive)
GI50 (SF-539): > 100 µM (inactive)
GI50 (SK-MEL-5): > 100 µM (inactive)
GI50 (SK-OV-3): > 100 µM (inactive)
GI50 (SN12C): > 100 µM (inactive)
GI50 (SNB-19): > 100 µM (inactive)
GI50 (SNB-75): > 100 µM (inactive)
GI50 (SW-620): > 100 µM (inactive)
GI50 (T47D): > 100 µM (inactive)
GI50 (U-251): > 100 µM (inactive)
GI50 (UACC-257): > 100 µM (inactive)
GI50 (UACC-62): > 100 µM (inactive)
GI50 (UO-31): > 100 µM (inactive)

COc1cccc(/C=N/n2c(C)n[nH]c2=O)c1
GI50 (786-0): > 100 µM (inactive)
GI50 (A498): 25.5 µM (inactive)
GI50 (A549): > 100 µM (inactive)
GI50 (ACHN): > 100 µM (inactive)
GI50 (BT-549): 92.9 µM (inactive)
GI50 (CAKI-1): 60.5 µM (inactive)
GI50 (CCRF-CEM): > 100 µM (inactive)
GI50 (COLO 205): > 100 µM (inactive)
GI50 (EKVX): 32 µM (inactive)
GI50 (HCC 2998): > 100 µM (inactive)
GI50 (HCT-116): > 100 µM (inactive)
GI50 (HCT-15): > 100 µM
GI50 (HOP-62): 80.7 µM (inactive)
GI50 (HT-29): > 100 µM (inactive)
GI50 (Hs-578T): 16.8 µM (inactive)
GI50 (K562): > 100 µM (inactive)
GI50 (KM12): > 100 µM (inactive)
GI50 (M14): > 100 µM (inactive)
GI50 (MCF7): > 100 µM (inactive)
GI50 (MDA-MB-231): > 100 µM (inactive)
GI50 (MDA-MB-435): > 100 µM (inactive)
GI50 (MDA-N): > 100 µM (inactive)
GI50 (MOLT-4): > 100 µM (inactive)
GI50 (Malme-3M): > 100 µM (inactive)
GI50 (NCI-H226): 95.1 µM (inactive)
GI50 (NCI-H23): > 100 µM (inactive)
GI50 (NCI-H460): > 100 µM (inactive)
GI50 (NCI/ADR-RES): > 100 µM (inactive)
GI50 (OVCAR-3): 25.9 µM (inactive)
GI50 (OVCAR-4): > 100 µM (inactive)
GI50 (OVCAR-5): > 100 µM (inactive)
GI50 (OVCAR-8): > 100 µM (inactive)
GI50 (PC-3): > 100 µM (inactive)
GI50 (RPMI-8226): > 100 µM (inactive)
GI50 (RXF 393): 18.8 µM (inactive)
GI50 (SF-268): > 100 µM (inactive)
GI50 (SF-295): > 100 µM (inactive)
GI50 (SF-539): > 100 µM (inactive)
GI50 (SK-MEL-28): > 100 µM (inactive)
GI50 (SK-MEL-2): > 100 µM (inactive)
GI50 (SK-OV-3): > 100 µM (inactive)
GI50 (SN12C): > 100 µM (inactive)
GI50 (SNB-19): > 100 µM (inactive)
GI50 (SNB-75): 58.7 µM (inactive)
GI50 (SW-620): > 100 µM (inactive)
GI50 (T47D): > 100 µM (inactive)
GI50 (U-251): > 100 µM (inactive)
GI50 (UACC-257): > 100 µM (inactive)
GI50 (UACC-62): 69.3 µM (inactive)
GI50 (UO-31): > 100 µM (inactive)
